According to patent US20240150356A1, “Pyrimidine amide compounds and use thereof” (ALPHALA CO., LTD., priority 2019, published 2024):

Each molecule was assayed on Hep3B cells (hepatocellular carcinoma cell line) (assay: In vitro MTS cell viability assay (NCI-60 methodology), Hep3B). Details: Homo sapiens, 48 h, Table 3, MTS, 2 days drug incubation, 50% reduction vs time zero, read-out: Hep3B LC50.
Assay type: cell-based
Method in brief: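 Hep3B cells given five 2-fold dilutions of compound for 2 days, with viability by MTS measured at time zero and at end. LC50 is the concentration giving a 50% fall in viable cells relative to the start of treatment, per NCI-60 formula.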

SMILES | LC50 [nM]
Cc1nn(C)c2c(NC(=O)c3ccc([N+](=O)[O-])s3)nc(-c3cccc(C(F)(F)F)c3)nc12 [Compound 3-2, N-(1,3-dimethyl-5-(3-(trifluoromethyl)phenyl)-1H-pyrazolo[4,3-d]pyrimidin-7-yl)-5-nitrothiophene-2-carboxamide] | 860
CC(C)n1cc2nc(-c3ccc(C(C)(C)C)cc3)nc(NC(=O)c3ccc([N+](=O)[O-])s3)c2c1 [Compound 3-12, N-(2-(4-(tert-butyl)phenyl)-6-isopropyl-6H-pyrrolo[3,4-d]pyrimidin-4-yl)-5-nitrothiophene-2-carboxamide] | > 10000

Same assay, conditions: Homo sapiens, 48 h, Table 4, MTS, 2 days drug incubation, 50% reduction vs time zero, read-out: Hep3B LC50

SMILES | LC50 [nM]
Cc1csc2c(NC(=O)c3ccc([N+](=O)[O-])s3)nc(Oc3ccc(C(C)(C)C)cc3)nc12 [Compound 4-12, N-(2-(4-(tert-butyl)phenoxy)-7-methylthieno[3,2-d]pyrimidin-4-yl)-5-nitrothiophene-2-carboxamide] | 1340
O=C(Nc1nc(-c2ccc(F)cc2)nc2c(-c3ccccc3)csc12)c1ccc([N+](=O)[O-])s1 [Compound 4-15, N-(2-(4-fluorophenyl)-7-phenylthieno[3,2-d]pyrimidin-4-yl)-5-nitrothiophene-2-carboxamide] | 620
O=C(Nc1nc(-c2ccc(F)cc2)nc2c(-c3cccc(F)c3)csc12)c1ccc([N+](=O)[O-])s1 [Compound 4-18, N-(7-(3-fluorophenyl)-2-(4-fluorophenyl)thieno[3,2-d]pyrimidin-4-yl)-5-nitrothiophene-2-carboxamide] | 490

Same assay, conditions: Homo sapiens, 48 h, Table 5, MTS, 2 days drug incubation, 50% reduction vs time zero, read-out: Hep3B LC50

SMILES | LC50 [nM]
O=C(Nc1nc(-c2cccc(C(F)(F)F)c2)nc2c1cnn2-c1ccccc1)c1ccc([N+](=O)[O-])s1 [Compound 5-38, 5-nitro-N-(1-phenyl-6-(3-(trifluoromethyl)phenyl)-1H-pyrazolo[3,4-d]pyrimidin-4-yl)thiophene-2-carboxamide] | 450
O=C(Nc1nc(-c2ccc(N3CCOCC3)nc2)nc2c1cnn2-c1ccccc1)c1ccc([N+](=O)[O-])s1 [Compound 5-43, N-(6-(6-morpholinopyridin-3-yl)-1-phenyl-1H-pyrazolo[3,4-d]pyrimidin-4-yl)-5-nitrothiophene-2-carboxamide] | 570
O=C(Nc1nc(-c2ccc(Cl)c(F)c2)nc2c1cnn2-c1ccccc1)c1ccc([N+](=O)[O-])s1 [Compound 5-46, N-(6-(4-chloro-3-fluorophenyl)-1-phenyl-1H-pyrazolo[3,4-d]pyrimidin-4-yl)-5-nitrothiophene-2-carboxamide] | 240
Cc1ccc(-c2nc(NC(=O)c3ccc([N+](=O)[O-])s3)c3cnn(-c4ccccc4)c3n2)cn1 [Compound 5-34, N-(6-(6-methylpyridin-3-yl)-1-phenyl-1H-pyrazolo[3,4-d]pyrimidin-4-yl)-5-nitrothiophene-2-carboxamide] | 850
O=C(Nc1nc(-c2cccc(F)c2)nc2c1cnn2-c1ccccc1)c1ccc([N+](=O)[O-])s1 [Compound 5-26, N-(6-(3-fluorophenyl)-1-phenyl-1H-pyrazolo[3,4-d]pyrimidin-4-yl)-5-nitrothiophene-2-carboxamide] | 410

Same assay, conditions: Homo sapiens, 48 h, Table 6, MTS, 2 days drug incubation, 50% reduction vs time zero, read-out: Hep3B LC50

SMILES | LC50 [nM]
Cc1ccn(-c2nc(NC(=O)c3ccc([N+](=O)[O-])s3)c3cnn(-c4ccc(F)cc4)c3n2)n1 [Compound 6-108] | 90
O=C(Nc1nc(N2CCC(F)(F)C2)nc2c1cnn2-c1ccc(F)cc1)c1ccc([N+](=O)[O-])s1 [Compound 6-97, N-(6-(3,3-difluoropyrrolidin-1-yl)-1-(4-fluorophenyl)-1H-pyrazolo[3,4-d]pyrimidin-4-yl)-5-nitrothiophene-2-carboxamide] | 570
O=C(Nc1nc(N2CCCCC2)nc2c1cnn2-c1ccc(Cl)cc1)c1ccc([N+](=O)[O-])s1 [Compound 6-47, N-(1-(4-chlorophenyl)-6-(piperidin-1-yl)-1H-pyrazolo[3,4,d]pyrimidin-4-yl)-5-nitrothiophene-2-carboxamide] | 710
O=C(Nc1nc(-n2ccc(C(F)(F)F)n2)nc2c1cnn2-c1ccc(F)cc1)c1ccc([N+](=O)[O-])s1 [Compound 6-109, N-(1-(4-fluorophenyl)-6-(3-(trifluoromethyl)-1H-pyrazol-1-yl)-1H-pyrazolo[3,4-d]pyrimidin-4-yl)-5-nitrothiophene-2-carboxamide] | 380
O=C(Nc1nc(-c2ccc(Cl)cc2)nc2c1cnn2-c1cccc(F)c1)c1ccc([N+](=O)[O-])s1 [Compound 6-91, N-(6-(4-chlorophenyl)-1-(3-fluorophenyl)-1H-pyrazolo[3,4-d]pyrimidin-4-yl)-5-nitrothiophene-2-carboxamide] | 180
COCCOc1ccc(-c2nc(NC(=O)c3ccc([N+](=O)[O-])s3)c3cnn(-c4cccc(F)c4)c3n2)cn1 [Compound 6-94, N-(1-(3-fluorophenyl)-6-(6-(2-methoxyethoxy)pyridin-3-yl)-1H-pyrazolo[3,4-d]pyrimidin-4-yl)-5-nitrothiophene-2-carboxamide] | 280
COCCOc1ccc(-c2nc(NC(=O)c3ccc([N+](=O)[O-])s3)c3cnn(-c4ccc(F)cc4)c3n2)c(F)c1 [Compound 6-138, N-(6-(2-fluoro-4-(2-methoxyethoxy)phenyl)-1-(4-fluorophenyl)-1H-pyrazolo[3,4,d]pyrimidin-4-yl)-5-nitrothiophene-2-carboxamide] | > 1250

Same assay, conditions: Homo sapiens, 48 h, Table 7, MTS, 2 days drug incubation, 50% reduction vs time zero, read-out: Hep3B LC50

SMILES | LC50 [nM]
COc1ccc(-c2nc(NC(=O)c3ccc([N+](=O)[O-])s3)c3cnn(Cc4cccc(F)c4)c3n2)cn1 [Compound 7-18] | > 1250
O=C(Nc1nc(-c2ccc(Cl)nc2)nc2c1cnn2Cc1ccccc1)c1ccc([N+](=O)[O-])s1 [Compound 7-15, N-(1-benzyl-6-(6-chloropyridin-3-yl)-1H-pyrazolo[3,4-d]pyrimidin-4-yl)-5-nitrothiophene-2-carboxamide] | 1200

Same assay, conditions: Homo sapiens, 48 h, Table 8, MTS, 2 days drug incubation, 50% reduction vs time zero, read-out: Hep3B LC50

SMILES | LC50 [nM]
C[C@@H]1C[C@@H](n2ncc3c(NC(=O)c4ccc([N+](=O)[O-])s4)nc(-c4ccc(Cl)cc4)nc32)CC(C)(C)C1 [Compound 8-15, N-(6-(4-chlorophenyl)-1-((1R,5S)-3,3,5-trimethylcyclohexyl)-1H-pyrazolo[3,4-d]pyrimidin-4-yl)-5-nitrothiophene-2-carboxamide] | 1270
O=C(Nc1nc(-c2ccc(Cl)cc2)nc2c1cnn2C1CCCC1)c1ccc([N+](=O)[O-])s1 [Compound 8-9, N-(6-(4-chlorophenyl)-1-cyclopentyl-1H-pyrazolo[3,4-d]pyrimidin-4-yl)-5-nitrothiophene-2-carboxamide] | 940
CCOC(=O)N1CCC(n2ncc3c(NC(=O)c4ccc([N+](=O)[O-])s4)nc(-c4ccc(F)nc4)nc32)C1 [Compound 8-5, ethyl (S)-3-(6-(6-fluoropyridin-3-yl)-4-(5-nitrothiophene-2-carboxamide)-1H-pyrazolo[3,4-d]pyrimidin-1-yl)pyrrolidine-1-carboxylate] | > 2000

Same assay, conditions: Homo sapiens, 48 h, Table 9, MTS, 2 days drug incubation, 50% reduction vs time zero, read-out: Hep3B LC50

SMILES | LC50 [nM]
CC(C)N1CCC(n2ncc3c(NC(=O)c4ccc([N+](=O)[O-])s4)nc(-c4ccc(F)nc4)nc32)CC1 [Compound 9-1] | 1250
CCCC(=O)N1CCC(n2ncc3c(NC(=O)c4ccc([N+](=O)[O-])s4)nc(-c4ccc(F)nc4)nc32)CC1 [Compound 9-7, N-(1-(1-butyrylpiperidin-4-yl)-6-(6-fluoropyridin-3-yl)-1H-pyrazolo[3,4-d]pyrimidin-4-yl)-5-nitrothiophene-2-carboxamide] | > 5000
C=CC(=O)N1CCC(n2ncc3c(NC(=O)c4ccc([N+](=O)[O-])s4)nc(-c4ccc(F)nc4)nc32)CC1 [Compound 9-6] | 1250

Same assay, conditions: Homo sapiens, 48 h, Table 10, MTS, 2 days drug incubation, 50% reduction vs time zero, read-out: Hep3B LC50

SMILES | LC50 [nM]
O=C(Nc1nc(-c2ccc(OC(F)(F)F)cc2)nc2c1cnn2C1CCCCC1)c1ccc([N+](=O)[O-])s1 [Compound 10-26, N-(1-cyclohexyl-6-(4-(trifluoromethoxy)phenyl)-1H-pyrazolo[3,4-d]pyrimidin-4-yl)-5-nitrothiophene-2-carboxamide] | 680
Cc1noc(C)c1-c1nc(NC(=O)c2ccc([N+](=O)[O-])s2)c2cnn(C3CCCCC3)c2n1 [Compound 10-9, N-(1-cyclohexyl-4-(3,5-dimethylisoxazol-4-yl)-1H-pyrazolo[3,4,d]pyrimidin-4-yl)-5-nitrothiophene-2-carboxamide] | 1070
O=C(Nc1nc(-c2ccc(Cl)cc2)nc2c1cnn2C1CCCCC1)c1ccc([N+](=O)[O-])s1 [Compound 10-17, N-(6-(4-chlorophenyl)-1-cyclohexyl-1H-pyrazolo[3,4-d]pyrimidin-4-yl)-5-nitrothiophene-2-carboxamide] | 530
CC1(C)CCC(n2ncc3c(NC(=O)c4ccc([N+](=O)[O-])s4)nc(-c4ccc(Cl)cc4)nc32)CC1 [Compound 10-63, N-(6(4-chlorophenyl)-1-(4,4-dimethylcyclohexyl)-1H-pyrazolo[3,4-d]pyrimidin-4-yl)-5-nitrothiophene-2-carboxamide] | 860
O=Cc1ccc(-c2nc(NC(=O)c3ccc([N+](=O)[O-])s3)c3cnn(C4CCCCC4)c3n2)cc1 [Compound 10-27, N-(1-cyclohexyl-6-(4-formylphenyl)-1H-pyrazolo[3,4-d]pyrimidin-4-yl)-5-nitrothiophene-2-carboxamide] | 840
O=C(Nc1nc(-c2ccc(F)cc2F)nc2c1cnn2C1CCCCC1)c1ccc([N+](=O)[O-])s1 [Compound 10-39] | 1240
Cc1ccc(-c2nc(NC(=O)c3ccc([N+](=O)[O-])s3)c3cnn(C4CCCCC4)c3n2)s1 [Compound 10-7, N-(1-cyclohexyl-6-(5-methylthiophen-2-yl)-1H-pyrazolo[3,4-d]pyrimidin-4-yl)-5-nitrothiophene-2-carboxamide] | 1530
